Experimental data from patent publication US20050261319A1, “Novel 2-amino-4-quinazolinones and 2-amino-4-oxoquinazolones as LXR nuclear receptor binding compounds with partial agonistic properties” (priority 2002, published 2005).
Like-named read-outs stand apart in the source and are kept apart here.

Legend:
Format in all cases: cell-based
[1] = target: T1, GAL4-LXRb-LBD (Homo sapiens, UniProt P55055); assay: Mammalian one hybrid (M1H) luciferase assay in HEK293 cells, LXR beta LBD; details: for LXR beta LBD construct mediated luciferase activity compared with LXR alpha construct: M1H assay
T1 construct: expressed in transfected cells; host or cells: HEK293
T1 sequence (P55055 222-460 limits assumed): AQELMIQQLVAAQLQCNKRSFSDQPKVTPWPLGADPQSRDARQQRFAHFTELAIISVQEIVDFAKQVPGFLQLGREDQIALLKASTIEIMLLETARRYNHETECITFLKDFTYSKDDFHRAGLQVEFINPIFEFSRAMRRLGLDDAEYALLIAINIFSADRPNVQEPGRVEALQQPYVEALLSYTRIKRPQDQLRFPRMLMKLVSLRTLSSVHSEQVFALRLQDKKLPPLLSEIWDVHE
Experimental: For TR1040001892, TR1040011382, TR1040002211, and TR1040002212, HEK293 cells are grown in 96 well plates and co-transfected with pFR-luc (Stratagene) and pCMV-BD-LXRa-LBD or pCMV-BD-LXRb-LBD (each 100 ng of plasmid DNA per well). Transfection is carried using Lipfectamine 2000 (Gibco-BRL) according to the manufacturers protocol. The ligand binding domains (LBD) of LXRa and LXRb are cloned into the pCMV-BD-GW (the Gateway Reading Frame Cassette B is cloned as an EcoRV fragment into Sma1 site of pCMV-BD) applying the manufacturer protocols for the Gateway system (Invitrogen). […] The type of assay used here is a mammalian one hybrid (M1 H) assay that is known to those skilled in the art.

[2] = test system: ABCA1 and ABCG1 in THP-1 cells; assay: mRNA content of LXR target genes ABCA1 and ABCG1 in THP-1 cells (TaqMan)
Experimental: THP-1 (3×10^5 cells per dish) cells were seeded in […] RPMI-1640 medium (ATTC, Cat. No. 30-2001) containing 10% FCS (GIBCO) and 100 nM TPA and cultivated at 37° C. in 5% CO2 for 24 or 48 hours. HepG2 (4.5×10^5 cells per dish) were seeded in 24 well dishes in 3 ml DMEM Medium containing 10% FCS (GIBCO) and cultivated at 37° C. in 5% CO2 for 48 hours as indicated in FIG. 8B or until they are approx. 60% confluent.
The medium was then removed and replaced with medium containing 10% charcoal/stripped FCS (Hyclone) for 12 h.
LXR compounds are dissolved in DMSO, with the final solvent concentration never exceeding 0.125%. All treatments are done in triplicates and experiments repeated twice. Total RNA is extracted using the Qiagen Rneasy Mini Kit and treated with DNase (DNA free kit, Ambion). RNA is reverse transcribed with Oligo (dT) primer and real-time reverse transcription PCR (TaqMan) is performed using the ABI Prism 7900HT Sequence Detection System and reagents supplied by Applied Biosystems. mRNA steady state levels are normalised to H3 histone (H3F3A) expression levels.
The sequences of forward primers, reverse primers and TaqMan probes are as follows

[3] = test system: THP-1 macrophages; assay: Cholesterol efflux from differentiated THP-1 macrophages; details: ApoA1, 10 uM, 24 h
Experimental: Methods: Cultures of the monocyte-macrophage cell line and the hepatocytes HepG2 are obtained from the American Type tissue Culture Collection, Rockville, Md. and were grown in RPMI 1640 medium supplemented with 10% fetal bovine serum, 10 mM HEPES, 2 mM pyruvate, 50 uM (3-Mercaptoethanol (THP-1) and Minimum essential medium (Eagle) with 2 mM L-glutamine and Earle's BSS supplemented with 10% fetal bovine serum, 2 mM glutamin, 0.1 mM non-essential amino acids, 1 mM sodium pyruvate (HepG2), respectively, at 37° C. in 5% CO2. THP-1 cells are differentiated into macrophages by addition of 100 nM Phorbol 12-Myristate 13-Acetate (PMA; Sigma P8139) and PMA included in the medium of all subsequent experiments to maintain differentiation. For cholesterol efflux measurements and triglyceride analysis cells are seeded in 6 well plates at 1.8×10^6 cells (THP-1) and 1×10^6 cells (HepG2) per well, respectively. CHOLESTEROL EFFLUX THP-1 cells are seeded in 6 well plates at 1×10^6 cells per well in RPMI 1640 medium containing 10% FCS and 100 nM TPA for 72 h. After washing with PBS cells are incubated 24 h with fresh in RPMI 1640 medium containing 10% FCS and 100 nM TPA. […] Medium is collected, centrifuged to remove cell debris and assayed for cholesterol using a commercial fluorometric kit (Molecular Probes A-12216). The remaining cellular proteins are lysed with 0.3 NNaOH and protein content measured with the Biorad Bradford reagent. THP-1 (1×10^6 cells per dish) cells were seeded in 6 well dishes in 3 ml modified RPMI 1640 medium (ATTC, Cat. […] After incubation for 24 hours, total cholesterol was determined from cell supernatant in each of the wells using an enzymatic assay with fluorescence read-out for the determination of cholesterol (Amplex Red Cholesterol Assay Kit (A-12213). The fluorescence readout per mg of total protein content as determined from cells that were present in the respective well are shown in FIGS. 9 or 11 as an example.

[4] = test system: HepG2 liver cells; assay: Triglyceride assay in HepG2 cells; details: 24 h, 25 pM
Experimental: Methods: Cultures of the monocyte-macrophage cell line and the hepatocytes HepG2 are obtained from the American Type tissue Culture Collection, Rockville, Md. and were grown in RPMI 1640 medium supplemented with 10% fetal bovine serum, 10 mM HEPES, 2 mM pyruvate, 50 uM (3-Mercaptoethanol (THP-1) and Minimum essential medium (Eagle) with 2 mM L-glutamine and Earle's BSS supplemented with 10% fetal bovine serum, 2 mM glutamin, 0.1 mM non-essential amino acids, 1 mM sodium pyruvate (HepG2), respectively, at 37° C. in 5% CO2.
For cholesterol efflux measurements and triglyceride analysis cells are seeded in 6 well plates at 1.8×10^6 cells (THP-1) and 1×10^6 cells (HepG2) per well, respectively.
TRIGLYCERIDE ASSAY HepG2 cells are seeded in poly-L-Lysine coated 6 well plates at 1×10^6 cells per well in EMEM medium containing 10% FCS until they were appr. 60% confluent. Before treatment with LXR compounds growth medium is changed to medium containing 10% charcoal/dextran-stripped FCS for 12 h. Treatment is done for 24 h in medium containing 10% charcoal/dextran-stripped FCS. Cells are washed twice with ice-cold PBS/0.2% BSA and twice with cold PBS and all liquid carefully removed. Triglyceride are extracted with 1.5 ml hexane/isopropanol=3: 2 per well with gentle shaking for 2-3 h at RT according to Pan et al. (2002) JBC277, 4413-4421 and Goti et al. (1998) Biochem J, 332, 57-65. The extraction solution is collected, dried under vacuum and redissolved in isopropanol/1.5% triton. The remaining cellular proteins are lysed with 0.3 N NaOH and protein content measured with the Biorad Bradford reagent.
Triglyceride levels are measured as esterified glycerol using a commercial enzymatic colorimetric kit (Sigma 343-25P). In a preliminary assay it is checked by omitting the lipase enzyme that contribution of free glycerol is negligible.

Row | Structure (SMILES) | luciferase reporter gene expression mediated through GAL4-LXRb-LBD [1] | LXR beta LBD construct mediated luciferase activity compared with LXR alpha construct [1] | selectivity of upregulation of ABCA1 and ABCG1 in THP-1 cells versus FAS and SREBP-1c in HepG2 cells [2] | selectivity of upregulation of ABCA1 and ABCG1 in THP-1 cells versus FAS and SREBP-1c in HepG2 cells ([2]; listed as TR1040011382) | cholesterol export [3] | triglyceride mass [4] | selectivity of upregulation of ABCA1 and ABCG1 in THP-1 cells versus FAS and SREBP-1c in HepG2 cells ([2]; listed as TR1040001892)
1 | CC(C)n1c(N2C3CC(C)(C)CC2(C)C3)nc2ccc(I)cc2c1=O (centres unmarked) [formula (10)] | activate luciferase reporter gene expression in a dose dependent manner | much stronger than with LXR alpha construct | selective upregulation | selective transcriptional effect | marked increase | do not cause a significant increase | 
2 | C=CCn1c(N2C3CC(C)(C)CC2(C)C3)nc2ccc(I)cc2c1=O (centres unmarked) [formula (9)] | activate luciferase reporter gene expression in a dose dependent manner | much stronger than with LXR alpha construct | selective upregulation |  | marked increase | do not cause a significant increase | selective transcriptional effect
3 | C=CCn1c(N2[C@@H]3CC(C)(C)C[C@@]2(C)C3)nc2cccc(F)c2c1=O [formula (12)] | activate luciferase reporter gene expression in a dose dependent manner |  | reduced selectivity |  | marked increase | slight increase | 
4 | CCCn1c(N2[C@@H]3CC(C)(C)C[C@@]2(C)C3)nc2cccc(F)c2c1=O [formula (11)] | activate luciferase reporter gene expression in a dose dependent manner |  | reduced selectivity |  | marked increase | slight increase | 
